From US10894069B2, “Topical antiviral formulations and methods of using the same” (priority 2015, dated 2021)

Legend:
[1] = cited from earlier work
herpes genitalias = test: Patient case, topical treatment of herpes genitalis; type: in vivo, human; conditions: person, high dose
Procedure: Operating with informed consent, individuals treated with the topical composition and the methods of the present invention for treating herpes virus infection, more particularly Herpes simplex and herpes zoster or shingles, as described in Examples 3 to 8.
A person presented with a decade or longer history of herpes genitalias recurring on the epithelium of the penis, more specifically the shaft. […] The patient was then treated with Composition B of the cannabinoid rich topical of Example 1 one to two times a day.

Herpes simplex = test: Informal patient trials, topical treatment of Herpes simplex of the lips / herpes labialis; type: in vivo, human; conditions: person; for benefit of prior therapy, orally: oral
[2] = cited from earlier work; remark: listed apart in the source

CCCCCc1cc(O)c2c(c1)OC(C)(C)[C@@H]1CCC(C)=C[C@@H]21 [THC, delta-9-tetrahydrocannabinol]
solubility in organic solvents ([1]; specifically lipids and alcohols): good solubility in most organic solvents

CC(C)[C@H](N)C(=O)OCCOCn1cnc2c(=O)[nH]c(N)nc21 [Valtrex, valacyclovir]
response of severe pain with burning and tingling to prior therapy (herpes genitalias): had not responded | satisfaction with prior therapy (Herpes simplex; high doses): without total satisfaction | benefit of prior therapy, orally (Herpes simplex): slight benefit

Nc1nc2c(ncn2COCCO)c(=O)[nH]1 [acyclovir]
solubility in water [1]: poor water-solubility | concentrations in the skin following topical application versus following oral administration [2]: 2-3 times lower

Nc1nc2c(ncn2COCCO)c(=O)[nH]1 [Zovirax, acyclovir]
benefit of prior therapy, orally (Herpes simplex): slight benefit | benefit of prior therapy, topically (Herpes simplex; topical): without benefit
